# Results reported in ChEMBL document CHEMBL1134707, “Orally active docetaxel analogue: synthesis of 10-deoxy-10-C-morpholinoethyl docetaxel analogues” (2001).
# Columns and labels:
# PC-12 [1] = assay: Cytotoxic activity against PC-12 human non-small cell lung cancer cell line
# PC-6 [2] = assay: Cytotoxic activity against PC-6 human small cell lung cancer; format: functional
# PC-6 [3] = assay: Cytotoxic activity against PC-6/VCR29-9 vincristine resistant cell line expressing P-gp; format: functional; settings: Homo sapiens
# PC-12 [4] = assay: Cytotoxic activity against PC-12 human non-small cell lung cancer cell line; format: functional; settings: Rattus norvegicus
# Mus musculus [5] = assay: Antitumor activity against B16 melanoma at dose of 22.2 mg/kg by po administration in mice and mortality rate is reported; format: functional
# Mus musculus [6] = assay: Antitumor activity against B16 melanoma in mice at dose of 75 mg/kg by po administration and body weight loss is reported; format: functional
# Mus musculus [7] = assay: Antitumor activity against B16 melanoma in mice at dose of 50 mg/kg by iv administration and IR value is reported; format: functional
# Mus musculus [8] = assay: Antitumor activity against B16 melanoma at dose of 33.3 mg/kg by iv administration in mice and mortality rate is reported; format: functional
# Mus musculus [9] = assay: Antitumor activity against B16 melanoma in mice at dose of 22.2 mg/kg by po administration and IR value is reported; format: functional
# Mus musculus [10] = assay: Antitumor activity against B16 melanoma in mice at dose of 33.3 mg/kg by po administration and body weight loss is reported; format: functional
# Mus musculus [11] = assay: Antitumor activity against B16 melanoma at dose of 100 mg/kg by iv administration in mice and mortality rate is reported; format: functional
# Mus musculus [12] = assay: Antitumor activity against B16 melanoma in mice at dose of 112.5 mg/kg by po administration and IR value is reported; format: functional
# Mus musculus [13] = assay: Antitumor activity against B16 melanoma at dose of 50 mg/kg by po administration in mice and mortality rate is reported; format: functional
# Mus musculus [14] = assay: Antitumor activity against B16 melanoma at dose of 112.5 mg/kg by po administration in mice and mortality rate is reported; format: functional
# Mus musculus [15] = assay: Antitumor activity against B16 melanoma in mice at dose of 22.2 mg/kg by po administration and body weight loss is reported; format: functional
# Mus musculus [16] = assay: Antitumor activity against B16 melanoma in mice at dose of 50 mg/kg by po administration and body weight loss is reported; format: functional
# Mus musculus [17] = assay: Antitumor activity against B16 melanoma in mice at dose of 112.5 mg/kg by po administration and body weight loss is reported; format: functional
# Mus musculus [18] = assay: Antitumor activity against B16 melanoma in mice at dose of 33.3 mg/kg by po administration and IR value is reported; format: functional
# Mus musculus [19] = assay: Antitumor activity against B16 melanoma in mice at dose of 75 mg/kg by iv administration and IR value is reported; format: functional
# Mus musculus [20] = assay: Antitumor activity against B16 melanoma in mice at dose of 50 mg/kg by po administration and IR value is reported; format: functional
# Mus musculus [21] = assay: Antitumor activity against B16 melanoma in mice at dose of 33.3 mg/kg by iv administration and body weight loss is reported; format: functional
# Mus musculus [22] = assay: Antitumor activity against B16 melanoma at dose of 33.3 mg/kg by po administration in mice and mortality rate is reported; format: functional
# Mus musculus [23] = assay: Antitumor activity against B16 melanoma at dose of 75 mg/kg by po administration in mice and mortality rate is reported; format: functional
# Mus musculus [24] = assay: Antitumor activity against B16 melanoma at dose of 50 mg/kg by iv administration in mice and mortality rate is reported; format: functional
# Mus musculus [25] = assay: Antitumor activity against B16 melanoma in mice at dose of 22.2 mg/kg by iv administration and IR value is reported; format: functional
# Mus musculus [26] = assay: Antitumor activity against B16 melanoma in mice at dose of 50 mg/kg by iv administration and body weight loss is reported; format: functional
# Mus musculus [27] = assay: Antitumor activity against B16 melanoma in mice at dose of 33.3 mg/kg by iv administration and IR value is reported; format: functional
# Mus musculus [28] = assay: Antitumor activity against B16 melanoma in mice at dose of 75 mg/kg by po administration and IR value is reported; format: functional
# Mus musculus [29] = assay: Antitumor activity against B16 melanoma in mice at dose of 75 mg/kg by iv administration and body weight loss is reported; format: functional
# Mus musculus [30] = assay: Antitumor activity against B16 melanoma at dose of 75 mg/kg by iv administration in mice and mortality rate is reported; format: functional
# Mus musculus [31] = assay: Antitumor activity against B16 melanoma in mice at dose of 22.2 mg/kg by iv administration and body weight loss is reported; format: functional
# Mus musculus [32] = assay: Antitumor activity against B16 melanoma in mice at dose of 100 mg/kg by iv administration and body weight loss is reported; format: functional
# Mus musculus [33] = assay: Antitumor activity against B16 melanoma in mice at dose of 600 mg/kg by po administration and body weight loss is reported; format: functional
# Mus musculus [34] = assay: Antitumor activity against B16 melanoma in mice at dose of 100 mg/kg by iv administration and IR value is reported; format: functional
# Mus musculus [35] = assay: Antitumor activity against B16 melanoma at dose of 600 mg/kg by po administration in mice and mortality rate is reported; format: functional
# Mus musculus [36] = assay: Antitumor activity against B16 melanoma in mice at dose of 600 mg/kg by po administration and IR value is reported; format: functional
smiles,measurement,setting,value
CC(=O)O[C@@]12CO[C@@H]1C[C@@H](F)[C@@]1(C)C(=O)[C@H](CCN3CCOCC3)C3=C(C)[C@@H](OC(=O)[C@H](O)[C@@H](NC(=O)OC(C)(C)C)c4ccccc4)C[C@@](O)([C@@H](OC(=O)c4ccccc4)C12)C3(C)C (some centres not stated),GI50,PC-12 [1],2.55 ng/mL
same,GI50,PC-6 [2],0.379 ng/mL
same,GI50,PC-6 [3],16.2 ng/mL
CC(=O)O[C@@]12CO[C@@H]1C[C@H](O)[C@@]1(C)C(=O)[C@H](CCN3CCOCC3)C3=C(C)[C@@H](OC(=O)[C@H](O)[C@@H](NC(=O)OC(C)(C)C)c4ccccc4)C[C@@](O)([C@@H](OC(=O)c4ccccc4)[C@H]21)C3(C)C,GI50,PC-12 [1],21.5 ng/mL
same,GI50,PC-6 [2],1.72 ng/mL
same,GI50,PC-6 [3],76.3 ng/mL
CC(=O)O[C@@]12CO[C@@H]1C[C@H](OCF)C1(C)C(=O)[C@H](CCN3CCOCC3)C3=C(C)[C@@H](OC(=O)[C@H](O)[C@@H](NC(=O)OC(C)(C)C)c4ccccc4)C[C@@](O)([C@@H](OC(=O)c4ccccc4)C12)C3(C)C (some centres not stated),GI50,PC-12 [4],1.5 ng/mL
same,GI50,PC-6 [2],0.246 ng/mL
same,GI50,PC-6 [3],40.4 ng/mL
CC(=O)O[C@@]12CO[C@@H]1C=C[C@@]1(C)C(=O)[C@H](CCN3CCOCC3)C3=C(C)[C@@H](OC(=O)[C@H](O)[C@@H](NC(=O)OC(C)(C)C)c4ccccc4)C[C@@](O)([C@@H](OC(=O)c4ccccc4)C12)C3(C)C (some centres not stated),GI50,PC-12 [1],0.824 ng/mL
same,GI50,PC-6 [2],0.5 ng/mL
same,GI50,PC-6 [3],18 ng/mL
CC(=O)O[C@@]12CO[C@@H]1CC[C@@]1(C)C(=O)[C@H](CCN3CCOCC3)C3=C(C)[C@@H](OC(=O)[C@H](O)[C@@H](NC(=O)OC(C)(C)C)c4ccccc4)C[C@@](O)([C@@H](OC(=O)c4ccccc4)C12)C3(C)C (some centres not stated),GI50,PC-12 [1],1.47 ng/mL
same,GI50,PC-6 [2],0.761 ng/mL
same,GI50,PC-6 [3],20.4 ng/mL
CO[C@H]1C[C@H]2OC[C@@]2(OC(C)=O)[C@H]2[C@H](OC(=O)c3ccccc3)[C@]3(O)C[C@H](OC(=O)[C@H](O)[C@@H](NC(=O)OC(C)(C)C)c4ccccc4)C(C)=C([C@@H](CCN4CCOCC4)C(=O)[C@]12C)C3(C)C,Mortality,Mus musculus [5],0
same,BWL,Mus musculus [6],5%
same,IR,Mus musculus [7],98.6%
same,Mortality,Mus musculus [8],0
same,IR,Mus musculus [9],81.7%
same,BWL,Mus musculus [10],0.9%
same,Mortality,Mus musculus [11],0
same,IR,Mus musculus [12],99%
same,Mortality,Mus musculus [13],0
same,Mortality,Mus musculus [14],4
same,GI50,PC-12 [1],0.756 ng/mL
same,BWL,Mus musculus [15],<0%
same,BWL,Mus musculus [16],<1.7%
same,BWL,Mus musculus [17],<20%
same,IR,Mus musculus [18],82.8%
same,IR,Mus musculus [19],99.4%
same,IR,Mus musculus [20],96.2%
same,BWL,Mus musculus [21],9.4%
same,Mortality,Mus musculus [22],0
same,Mortality,Mus musculus [23],0
same,GI50,PC-6 [2],0.266 ng/mL
same,Mortality,Mus musculus [24],0
same,IR,Mus musculus [25],93.7%
same,BWL,Mus musculus [26],18%
same,IR,Mus musculus [27],94.4%
same,GI50,PC-6 [3],9.01 ng/mL
same,IR,Mus musculus [28],98.3%
same,BWL,Mus musculus [29],19.2%
same,Mortality,Mus musculus [30],5
same,BWL,Mus musculus [31],5.7%
CC(=O)O[C@@]12CO[C@@H]1CC1C[C@@]13C(=O)[C@H](CCN1CCOCC1)C1=C(C)[C@@H](OC(=O)[C@H](O)[C@@H](NC(=O)OC(C)(C)C)c4ccccc4)C[C@@](O)([C@@H](OC(=O)c4ccccc4)C32)C1(C)C (some centres not stated),GI50,PC-12 [1],3.56 ng/mL
same,GI50,PC-6 [2],0.873 ng/mL
same,GI50,PC-6 [3],38.6 ng/mL
CC(=O)O[C@@]12CO[C@@H]1C[C@H](O)[C@@]1(C)C(=O)[C@H](O)C3=C(C)[C@@H](OC(=O)[C@H](O)[C@@H](NC(=O)OC(C)(C)C)c4ccccc4)C[C@@](O)([C@@H](OC(=O)c4ccccc4)[C@H]21)C3(C)C.O.O.O [DOCETAXEL],BWL,Mus musculus [32],<0%
same,BWL,Mus musculus [33],<0%
same,Mortality,Mus musculus [11],0
same,GI50,PC-12 [1],11.7 ng/mL
same,IR,Mus musculus [34],95.1%
same,Mortality,Mus musculus [35],0
same,GI50,PC-6 [2],0.408 ng/mL
same,IR,Mus musculus [36],6.2%
same,GI50,PC-6 [3],39.6 ng/mL
